Reference: ChEMBL document CHEMBL3885881, “DrugMatrix”

Organism: Rattus norvegicus
Assay: DrugMatrix - Regimen: Daily Repeat
Assay type: toxicity, organism-based, Sprague-Dawley
Parameters: regimen Daily Repeat, gender Male, age 6-8 weeks
Conditions: in vivo, iv, vehicle 100 % SALINE; for ABSOLUTE BASOPHIL / ABSOLUTE EOSINOPHIL / ABSOLUTE LYMPHOCYTE / ABSOLUTE MONOCYTE / ABSOLUTE SEGMENTED NEUTROPHIL / BASOPHIL / EOSINOPHIL / ERYTHROCYTE COUNT / HEMATOCRIT / HEMOGLOBIN / LEUKOCYTE COUNT / LYMPHOCYTE / MEAN CORPUSCULAR HEMOGLOBIN / MEAN CORPUSCULAR HEMOGLOBIN CONCENTRATION / MEAN CORPUSCULAR VOLUME / MONOCYTE / NEUTROPHIL / NUCLEATED RED BLOOD CELLS / PLATELET COUNT: tissue Blood; for ALANINE AMINOTRANSFERASE / ALBUMIN / ALKALINE PHOSPHATASE / ASPARTATE AMINOTRANSFERASE / BLOOD UREA NITROGEN / CARBON DIOXIDE / CHLORIDE / CHOLESTEROL / CREATINE PHOSPHOKINASE / CREATININE / GLUCOSE / LACTATE DEHYDROGENASE / LIPASE / PHOSPHORUS / POTASSIUM / SODIUM / TOTAL BILIRUBIN / TOTAL PROTEIN / URIC ACID: tissue Plasma
[1] = 12 mg/kg, 120 h, dose level High, time 5 day
[2] = […], 72 h, dose 1.2 mg/Kg, dose level Low, time 3 day
[3] = […], 120 h, dose 1.2 mg/Kg, dose level Low, time 5 day

SMILES: Cc1c(N)nc([C@H](CC(N)=O)NC[C@H](N)C(N)=O)nc1C(=O)N[C@H](C(=O)N[C@H](C)[C@@H](O)[C@H](C)C(=O)N[C@H](C(=O)NCCc1nc(-c2nc(C(=O)NCCC[S+](C)C)cs2)cs1)[C@@H](C)O)[C@@H](O[C@@H]1O[C@@H](CO)[C@@H](O)[C@H](O)[C@@H]1O[C@H]1O[C@H](CO)[C@@H](O)[C@H](OC(N)=O)[C@@H]1O)c1c[nH]cn1.[Br-] [BLEOMYCIN A2]
- ABSOLUTE BASOPHIL [1]: 0 CELLS/uL
- ABSOLUTE EOSINOPHIL [1]: 50 CELLS/uL
- ABSOLUTE LYMPHOCYTE [1]: 10142.67 CELLS/uL
- ABSOLUTE MONOCYTE [1]: 392.67 CELLS/uL
- ABSOLUTE SEGMENTED NEUTROPHIL [1]: 1914.67 CELLS/uL
- BASOPHIL [1]: 0%
- EOSINOPHIL [1]: 0.33%
- ERYTHROCYTE COUNT [1]: 6.36 x10E6/uL
- HEMATOCRIT [1]: 38.97%
- HEMOGLOBIN [1]: 15.17 G/DL
- LEUKOCYTE COUNT [1]: 12.5 x10E3/uL
- LYMPHOCYTE [1]: 80%
- MEAN CORPUSCULAR HEMOGLOBIN [1]: 23.87 pg
- MEAN CORPUSCULAR HEMOGLOBIN CONCENTRATION [1]: 38.93 G/DL
- MEAN CORPUSCULAR VOLUME [1]: 61.27 fL
- MONOCYTE [1]: 3.33%
- NEUTROPHIL [1]: 16.33%
- NUCLEATED RED BLOOD CELLS [1]: 0.33 /100WBC
- PLATELET COUNT [1]: 1342 x10E3/uL
- ALANINE AMINOTRANSFERASE [1]: 41.67 u/L
- ALBUMIN [1]: 3.83 G/DL
- ALKALINE PHOSPHATASE [1]: 202.67 u/L
- ASPARTATE AMINOTRANSFERASE [1]: 100.67 u/L
- BLOOD UREA NITROGEN [1]: 16.67 mg/dL
- CARBON DIOXIDE [1]: 29 mmol/L
- CHLORIDE [1]: 101 MEQ/L
- CHOLESTEROL [1]: 54.33 mg/dL
- CREATINE PHOSPHOKINASE [1]: 1017.67 u/L
- CREATININE [1]: 0.13 mg/dL
- GLUCOSE [1]: 145.67 mg/dL
- LACTATE DEHYDROGENASE [1]: 563.33 u/L
- LIPASE [1]: 10 u/L
- PHOSPHORUS [1]: 10.83 mg/dL
- POTASSIUM [1]: 6.11 MEQ/L
- SODIUM [1]: 142.27 MEQ/L
- TOTAL BILIRUBIN [1]: 0.1 mg/dL
- TOTAL PROTEIN [1]: 6 G/DL
- URIC ACID [1]: 1.3 mg/dL
- ABSOLUTE BASOPHIL [2]: 0 CELLS/uL
- ABSOLUTE EOSINOPHIL [2]: 212 CELLS/uL
- ABSOLUTE LYMPHOCYTE [2]: 11289 CELLS/uL
- ABSOLUTE MONOCYTE [2]: 312.33 CELLS/uL
- ABSOLUTE SEGMENTED NEUTROPHIL [2]: 1786.67 CELLS/uL
- BASOPHIL [2]: 0%
- EOSINOPHIL [2]: 1.67%
- ERYTHROCYTE COUNT [2]: 5.13 x10E6/uL
- HEMATOCRIT [2]: 35.1%
- HEMOGLOBIN [2]: 13.93 G/DL
- LEUKOCYTE COUNT [2]: 13.6 x10E3/uL
- LYMPHOCYTE [2]: 83%
- MEAN CORPUSCULAR HEMOGLOBIN [2]: 27.23 pg
- MEAN CORPUSCULAR HEMOGLOBIN CONCENTRATION [2]: 39.73 G/DL
- MEAN CORPUSCULAR VOLUME [2]: 68.43 fL
- MONOCYTE [2]: 2.33%
- NEUTROPHIL [2]: 13%
- NUCLEATED RED BLOOD CELLS [2]: 0 /100WBC
- PLATELET COUNT [2]: 1111 x10E3/uL
- ALANINE AMINOTRANSFERASE [2]: 40.67 u/L
- ALBUMIN [2]: 4.37 G/DL
- ALKALINE PHOSPHATASE [2]: 464.33 u/L
- ASPARTATE AMINOTRANSFERASE [2]: 82.33 u/L
- BLOOD UREA NITROGEN [2]: 13.33 mg/dL
- CARBON DIOXIDE [2]: 25.33 mmol/L
- CHLORIDE [2]: 100 MEQ/L
- CHOLESTEROL [2]: 69.33 mg/dL
- CREATINE PHOSPHOKINASE [2]: 261.33 u/L
- CREATININE [2]: 0.18 mg/dL
- GLUCOSE [2]: 184.67 mg/dL
- LACTATE DEHYDROGENASE [2]: 180 u/L
- LIPASE [2]: 10.67 u/L
- PHOSPHORUS [2]: 11.87 mg/dL
- POTASSIUM [2]: 5.72 MEQ/L
- SODIUM [2]: 144 MEQ/L
- TOTAL BILIRUBIN [2]: 0.23 mg/dL
- TOTAL PROTEIN [2]: 5.97 G/DL
- URIC ACID [2]: 1.6 mg/dL
- ABSOLUTE BASOPHIL [3]: 0 CELLS/uL
- ABSOLUTE EOSINOPHIL [3]: 37 CELLS/uL
- ABSOLUTE LYMPHOCYTE [3]: 10260.33 CELLS/uL
- ABSOLUTE MONOCYTE [3]: 119.33 CELLS/uL
- ABSOLUTE SEGMENTED NEUTROPHIL [3]: 1383.33 CELLS/uL
- BASOPHIL [3]: 0%
- EOSINOPHIL [3]: 0.33%
- ERYTHROCYTE COUNT [3]: 5.63 x10E6/uL
- HEMATOCRIT [3]: 35.3%
- HEMOGLOBIN [3]: 14.17 G/DL
- LEUKOCYTE COUNT [3]: 11.8 x10E3/uL
- LYMPHOCYTE [3]: 87%
- MEAN CORPUSCULAR HEMOGLOBIN [3]: 25.2 pg
- MEAN CORPUSCULAR HEMOGLOBIN CONCENTRATION [3]: 40.17 G/DL
- MEAN CORPUSCULAR VOLUME [3]: 62.77 fL
- MONOCYTE [3]: 1%
- NEUTROPHIL [3]: 11.67%
- NUCLEATED RED BLOOD CELLS [3]: 0 /100WBC
- PLATELET COUNT [3]: 1110.33 x10E3/uL
- ALANINE AMINOTRANSFERASE [3]: 46.33 u/L
- ALBUMIN [3]: 4.17 G/DL
- ALKALINE PHOSPHATASE [3]: 346 u/L
- ASPARTATE AMINOTRANSFERASE [3]: 85 u/L
- BLOOD UREA NITROGEN [3]: 17 mg/dL
- CARBON DIOXIDE [3]: 32.33 mmol/L
- CHLORIDE [3]: 99.67 MEQ/L
- CHOLESTEROL [3]: 72.33 mg/dL
- CREATINE PHOSPHOKINASE [3]: 387 u/L
- CREATININE [3]: 0.22 mg/dL
- GLUCOSE [3]: 142.67 mg/dL
- LACTATE DEHYDROGENASE [3]: 421.33 u/L
- LIPASE [3]: 10.67 u/L
- PHOSPHORUS [3]: 12.3 mg/dL
- POTASSIUM [3]: 6.05 MEQ/L
- SODIUM [3]: 144.13 MEQ/L
- TOTAL BILIRUBIN [3]: 0.17 mg/dL
- TOTAL PROTEIN [3]: 6.1 G/DL
- URIC ACID [3]: 1.27 mg/dL
